Where two headings read alike, the source gives them in different places.

The subject of one series is CYP6P9a. The following applies: two earlier studies; ref [28]; cited from earlier work.
The test system of the next series is CYP6P9b. The following applies: two earlier studies; ref [28]; cited from earlier work.
A further series concerns CYP6P3. The following applies: Incubation time 2h; mean ± SD; ref [38], [41]; cited from earlier work.
The target of series [1] is T1, CYP6Z2 (Anopheles gambiae, UniProt Q7PNB5).
T1 sequence (Q7PNB5 1-492): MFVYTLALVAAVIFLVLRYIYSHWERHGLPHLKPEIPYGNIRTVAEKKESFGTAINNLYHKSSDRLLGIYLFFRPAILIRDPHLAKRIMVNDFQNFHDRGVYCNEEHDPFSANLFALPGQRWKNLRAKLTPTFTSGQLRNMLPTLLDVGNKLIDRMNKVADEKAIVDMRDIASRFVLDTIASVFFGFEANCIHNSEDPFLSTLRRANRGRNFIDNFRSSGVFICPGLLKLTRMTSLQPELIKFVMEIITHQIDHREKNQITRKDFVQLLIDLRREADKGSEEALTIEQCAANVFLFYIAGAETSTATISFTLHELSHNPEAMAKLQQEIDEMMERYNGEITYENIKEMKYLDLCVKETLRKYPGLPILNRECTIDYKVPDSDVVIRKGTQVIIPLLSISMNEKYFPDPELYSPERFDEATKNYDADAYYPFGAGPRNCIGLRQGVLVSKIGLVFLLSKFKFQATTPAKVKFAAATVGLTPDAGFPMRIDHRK
T1 sequence (Q86QH5 1-679 partner): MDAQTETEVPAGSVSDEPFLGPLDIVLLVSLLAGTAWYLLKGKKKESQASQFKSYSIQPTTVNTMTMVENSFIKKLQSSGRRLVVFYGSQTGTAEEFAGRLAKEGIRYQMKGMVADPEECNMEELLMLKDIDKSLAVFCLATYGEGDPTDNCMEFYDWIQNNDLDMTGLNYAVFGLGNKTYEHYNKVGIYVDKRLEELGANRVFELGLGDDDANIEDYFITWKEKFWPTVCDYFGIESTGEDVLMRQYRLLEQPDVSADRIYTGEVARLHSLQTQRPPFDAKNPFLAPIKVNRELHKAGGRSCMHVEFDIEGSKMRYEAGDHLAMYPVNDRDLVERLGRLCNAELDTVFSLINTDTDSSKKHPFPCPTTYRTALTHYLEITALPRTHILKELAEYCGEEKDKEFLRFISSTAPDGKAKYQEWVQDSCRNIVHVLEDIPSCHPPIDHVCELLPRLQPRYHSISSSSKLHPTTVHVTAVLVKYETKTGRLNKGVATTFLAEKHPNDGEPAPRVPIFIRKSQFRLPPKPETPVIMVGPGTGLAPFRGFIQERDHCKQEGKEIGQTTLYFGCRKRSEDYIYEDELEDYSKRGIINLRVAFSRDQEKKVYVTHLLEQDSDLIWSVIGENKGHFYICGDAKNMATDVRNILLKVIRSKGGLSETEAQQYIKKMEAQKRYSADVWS
Description: Inhibition screening of pyrethroids, diethoxyfluorescein, CYP6Z2. It is filed as biochemical.

A further series has as its system CYP6M7. The following applies: two earlier studies; ref [28]; cited from earlier work.
Series [2] concerns An. funestus strain, FUMOZ-R. On the set-up: method as in PMID 26930058. The following applies: strain with upregulated P450 levels without any target-site mutations; ref [47]; cited from earlier work.
For series [3], the target named is T1, CYP6Z2. The following applies: read-out: IC50 CYP6Z2; inhibition of diethoxyfluorescein metabolism; footnote a; ref Yunta et al. 2016[8]; cited from earlier work.

On to `Cc1c(COC(=O)[C@@H]2[C@H](/C=C(\Cl)C(F)(F)F)C2(C)C)cccc1-c1ccccc1` (racemic) [Bifenthrin, bifenthrin], for which the “depletion (metabolised) by CYP6P9a” value in the series on CYP6P9a is listed as 68%. The “depletion (metabolised) by CYP6P9b” value in the series with CYP6P9b is listed as 71%. Also, the “% Insecticide depletion CYP6P3” value in the series with CYP6P3 is on record as 76.7 ± 0.3%. Also, half-maximal inhibition against CYP6Z2 [1] (IC50) was put at 20.7 µM. Also, the “depletion (metabolised) by CYP6M7” value in the series with CYP6M7 is 62%.

For the compound `CC1(C)[C@H](C(=O)O[C@H](C#N)c2cccc(Oc3ccccc3)c2)[C@@H]1/C=C(\Cl)C(F)(F)F` (racemic) [λ-Cyhalothrin, λ-cyhalothrin], in the series with CYP6P3, the “% Insecticide depletion CYP6P3” value is recorded as 83.3 ± 15.4%. Further, at CYP6Z2 [1], the IC50 (commonly the concentration that gives 50% inhibition) worked out at 18.6 µM.

In the case of `CC1(C)[C@H](C(=O)O[C@H](C#N)c2cccc(Oc3ccccc3)c2)[C@@H]1C=C(Br)Br` [Deltamethrin, deltamethrin], the “effectiveness with or without piperonyl butoxide (PBO), in words” value in series [2] is given as “only effective when partnered with PBO”. Further, on CYP6Z2 [3], the IC50 was 13.9 µM.

As for `CCOc1ccc(C(C)(C)COCc2cccc(Oc3ccccc3)c2)cc1` [Etofenprox, etofenprox], the “% Insecticide depletion CYP6P3” value with CYP6P3 is reported as 99.8 ± 0.3%. On CYP6Z2 [1], this compound came in with an IC50 of 2.8 µM.

Take `CC1(C)C(C=C(Cl)Cl)C1C(=O)OCc1cccc(Oc2ccccc2)c1` (centres unmarked) [Permethrin, permethrin]: the “effectiveness with or without piperonyl butoxide (PBO), in words” value in series [2] is recorded as “only effective when partnered with PBO”. Further, the “% Insecticide depletion CYP6P3” value with CYP6P3 is on record as 100.0 ± 0.0%. The IC50 at CYP6Z2 [3] is 13.7 µM.

The values are drawn from publication PMC7893915, “Assessing cross-resistance within the pyrethroids in terms of their interactions with key cytochrome P450 enzymes and resistance in vector populations” (Parasites & Vectors, 2021).
